According to patent publication US12458700B2, “Amine-containing transfection reagents and methods for making and using same” (Life Technologies Corporation, priority 2010, dated 2025):

System: CSNK2A1
Test: CSNK2A1 siRNA knockdown by qPCR in Hela, primary cortical neurons and primary hippocampal neurons
Type: cell-based, human, rat
Conditions: lipoplex with cholesterol 1:0.5, 30 nM siRNA, 24 h, FIG. 5
From the text: Some lipids of the present invention were formulated into lipid compositions, which also comprise cholesterol or DOPE, buffers and ethanol. Animal origin-free cholesterol was purchased from Sigma-Aldrich (St Louis, MO) and DOPE was purchased from Avanti Lipids (Alabaster, AL). Silencer® Select CSNK2A1 siRNA and Silencer® Select negative control siRNA (cat #4390824 siRNA id#s3637 and cat #4390843) having the antisense sequence […] (SEQ ID NO:2) and […] (SEQ ID NO:3), respectively, were resuspended with nuclease-free water to a stock concentration of 50 μM, which were further diluted to meet downstream experiments and is commercially available from Life Technologies (Carlsbad, CA).
For compounds 83 and 67, the dry powder lipids were re-suspended in ethanol at a final concentration of 1 mg/ml and either used as lipid alone (Compound 83) or combined with cholesterol in 1:0.5 ratio (Compound 67). The formulations tested were made as described in Table 3
Primary rat cortex neuronal cells were purchased from GIBCO (Cat. No. A10840) and maintained in Neurobasal™ medium (cat #21103-049) supplemented with 2% B-27® Serum-free (50× cat #17504-044) and 0.5 mM GlutaMAX™ (cat #35050-061). […]

In the case of `CCCCCCCCCCCCNC(=O)CNCCCN(CCCCNCCCN(CC(=O)NCCCCCCCCCCCC)CC(=O)NCCCCCCCCCCCC)CC(=O)NCCCCCCCCCCCC` [Compound 67], the “relative percent of CSNK2A1 remaining activity normalized to negative control” value is reported as “do possess activity in vitro”.
